For 3 compounds, IC50, Activity and logD results are on record in ChEMBL document CHEMBL6120974, “Hydrazide-Based Class I Selective HDAC Inhibitors Completely Reverse Chemoresistance Synergistically in Platinum-Resistant Solid Cancer Cells” (J Med Chem, 2024).

Series [1] addresses Histone deacetylase 1 (Homo sapiens, UniProt Q13547). Kind of series: Inhibition of FLAG tagged full length human HDAC1 expressed in HEK293T cells using acyl-H3K9 peptide as substrate preincubated with compound for 20 mins followed by substrate addition and measured after 120 mins by HPLC analysis.
In series [2] the target is Histone deacetylase 4 (Homo sapiens, UniProt P56524). Kind of series: Inhibition of FLAG tagged full length human HDAC4 expressed in HEK293T cells using acyl-H3K9 peptide as substrate preincubated with compound for 20 mins followed by substrate addition and measured after 120 mins by HPLC analysis.
Histone deacetylase 4, sequence (P56524 whole entry): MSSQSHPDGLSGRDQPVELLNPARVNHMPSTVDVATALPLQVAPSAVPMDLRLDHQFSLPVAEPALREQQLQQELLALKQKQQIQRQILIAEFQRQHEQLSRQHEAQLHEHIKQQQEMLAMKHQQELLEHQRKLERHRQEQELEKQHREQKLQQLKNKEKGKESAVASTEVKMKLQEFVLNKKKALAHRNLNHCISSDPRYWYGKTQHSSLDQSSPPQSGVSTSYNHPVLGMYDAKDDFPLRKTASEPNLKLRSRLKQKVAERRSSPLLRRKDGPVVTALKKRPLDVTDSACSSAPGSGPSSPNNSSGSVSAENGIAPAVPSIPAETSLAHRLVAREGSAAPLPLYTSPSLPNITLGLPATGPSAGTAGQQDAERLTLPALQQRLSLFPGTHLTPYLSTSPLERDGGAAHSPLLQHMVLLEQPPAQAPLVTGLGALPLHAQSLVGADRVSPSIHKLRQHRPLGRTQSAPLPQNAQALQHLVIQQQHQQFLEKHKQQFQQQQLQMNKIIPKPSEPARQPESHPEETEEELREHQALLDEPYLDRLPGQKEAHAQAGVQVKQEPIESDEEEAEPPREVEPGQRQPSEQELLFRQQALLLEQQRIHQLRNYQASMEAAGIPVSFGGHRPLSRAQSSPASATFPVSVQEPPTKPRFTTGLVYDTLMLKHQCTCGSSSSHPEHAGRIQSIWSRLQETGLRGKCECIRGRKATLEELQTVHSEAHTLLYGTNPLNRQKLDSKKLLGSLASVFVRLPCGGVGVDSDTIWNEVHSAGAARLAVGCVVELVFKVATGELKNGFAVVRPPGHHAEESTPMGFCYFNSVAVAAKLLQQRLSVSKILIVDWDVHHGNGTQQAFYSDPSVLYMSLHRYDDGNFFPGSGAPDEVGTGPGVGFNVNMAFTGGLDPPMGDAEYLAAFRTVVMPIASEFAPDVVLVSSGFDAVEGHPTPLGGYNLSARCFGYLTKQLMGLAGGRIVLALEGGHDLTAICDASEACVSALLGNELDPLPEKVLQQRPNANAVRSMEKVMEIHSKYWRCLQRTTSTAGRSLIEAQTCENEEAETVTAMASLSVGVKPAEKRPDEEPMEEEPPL
The target of series [3] is T1, Histone deacetylase 8 (Homo sapiens, UniProt Q9BY41).
T1 sequence (Q9BY41 whole entry): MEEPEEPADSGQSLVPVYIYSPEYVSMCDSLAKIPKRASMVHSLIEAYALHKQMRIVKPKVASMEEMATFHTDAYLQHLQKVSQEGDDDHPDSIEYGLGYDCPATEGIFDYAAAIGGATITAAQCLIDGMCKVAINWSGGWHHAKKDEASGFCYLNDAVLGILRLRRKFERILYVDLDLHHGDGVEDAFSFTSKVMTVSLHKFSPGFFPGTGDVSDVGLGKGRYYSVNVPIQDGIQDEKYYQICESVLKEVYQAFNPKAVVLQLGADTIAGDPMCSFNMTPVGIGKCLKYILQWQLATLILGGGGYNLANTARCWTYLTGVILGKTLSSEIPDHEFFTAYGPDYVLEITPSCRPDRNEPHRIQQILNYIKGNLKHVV
The experiment in a line: Inhibition of FLAG tagged full length human HDAC8 expressed in HEK293T cells using acyl-H3K9 peptide as substrate preincubated with compound for 20 mins followed by substrate addition and measured after 120 mins by HPLC analysis. It is filed as cell-based.

Series [4] relates to CAL-27. The experiment in a line: cells. The conditions noted are these: Homo sapiens, CAL-27, 72 h.
Description: Cytotoxicity against human CAL-27 cells assessed as reduction in cell viability incubated for 72 hrs by MTT assay
The nature of series [5]: Induction of apoptosis in cisplatin resistant human Cal27CisR cells assessed as caspase-3/7 activation at 0.5 uM incubated for 48 hrs by capase3/7 green dye based analysis relative to control. The series is classed as functional.
A short description of series [6]: Cytotoxicity against human HEK293 cells assessed as reduction in cell viability incubated for 72 hrs by MTT assay. The series is classed as toxicity, cell-based. On the technique in general: Tetrazolium dyes change colour on reduction, which living cells bring about.
Series [7] relates to CAL-27. Kind of series: Induction of apoptosis in human CAL-27 cells assessed as caspase-3/7 activation at 0.5 uM incubated for 48 hrs by capase3/7 green dye based analysis relative to control. The series is classed as functional.
For series [8], the system named is HL-60. Kind of series: cells. The conditions noted are these: Homo sapiens, HL-60, 72 h.
Description: Cytotoxicity against human HL-60 cells harboring p53 null assessed as cell viability incubated for 72 hrs by MTT assay
Series [9] relates to A2780cisR. The experiment in a line: cells. Conditions: Homo sapiens, 72 h.
In series [10] the test system is MV4-11. Kind of series: cells. The conditions noted are these: Homo sapiens, MV4-11, 72 h.
Description: Cytotoxicity against human MV4-11 cells harboring wild type p53 assessed as cell viability incubated for 72 hrs by MTT assay
The subject of series [11] is A2780cisR. The experiment in a line: Induction of apoptosis in cisplatin resistant human A2780 cisR cells assessed as caspase-3/7 activation at 2 uM incubated for 48 hrs by capase3/7 green dye based analysis relative to control. The series is classed as functional.
Series [12] is described as follows: cells. Conditions: Homo sapiens, Cal27CisR, 72 h.
Description: Cytotoxicity against cisplatin resistant human Cal27CisR cells assessed as reduction in cell viability incubated for 72 hrs by MTT assay
Series [13] concerns A2780. Kind of series: Induction of apoptosis in human A2780 cells assessed as caspase-3/7 activation at 2 uM incubated for 48 hrs by capase3/7 green dye based analysis relative to control. The series is classed as functional.
Series [14] has as its target Histone deacetylase 3 (Homo sapiens, UniProt O15379). Kind of series: Inhibition of HDAC3 (unknown origin).
A short description of series [15]: Lipophilicity, logD of the compound in 1-octanol/PBS buffer at pH 7.4 by HPLC/UV analysis. The series is classed as physicochemical. Conditions: octanol/water.

Histone deacetylase 3, sequence (O15379 whole entry): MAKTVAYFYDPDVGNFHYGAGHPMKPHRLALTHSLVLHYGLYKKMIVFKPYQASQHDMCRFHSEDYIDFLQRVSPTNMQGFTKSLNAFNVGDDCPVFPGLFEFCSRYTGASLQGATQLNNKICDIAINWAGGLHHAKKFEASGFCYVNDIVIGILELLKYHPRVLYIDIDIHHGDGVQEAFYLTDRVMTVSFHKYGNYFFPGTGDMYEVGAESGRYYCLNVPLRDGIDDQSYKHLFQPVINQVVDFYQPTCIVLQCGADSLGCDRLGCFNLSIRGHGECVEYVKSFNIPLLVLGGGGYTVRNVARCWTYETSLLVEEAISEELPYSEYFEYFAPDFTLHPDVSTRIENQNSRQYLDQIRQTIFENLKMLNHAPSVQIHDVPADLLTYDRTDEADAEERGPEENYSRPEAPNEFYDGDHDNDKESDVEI
Histone deacetylase 1, sequence (Q13547 whole entry): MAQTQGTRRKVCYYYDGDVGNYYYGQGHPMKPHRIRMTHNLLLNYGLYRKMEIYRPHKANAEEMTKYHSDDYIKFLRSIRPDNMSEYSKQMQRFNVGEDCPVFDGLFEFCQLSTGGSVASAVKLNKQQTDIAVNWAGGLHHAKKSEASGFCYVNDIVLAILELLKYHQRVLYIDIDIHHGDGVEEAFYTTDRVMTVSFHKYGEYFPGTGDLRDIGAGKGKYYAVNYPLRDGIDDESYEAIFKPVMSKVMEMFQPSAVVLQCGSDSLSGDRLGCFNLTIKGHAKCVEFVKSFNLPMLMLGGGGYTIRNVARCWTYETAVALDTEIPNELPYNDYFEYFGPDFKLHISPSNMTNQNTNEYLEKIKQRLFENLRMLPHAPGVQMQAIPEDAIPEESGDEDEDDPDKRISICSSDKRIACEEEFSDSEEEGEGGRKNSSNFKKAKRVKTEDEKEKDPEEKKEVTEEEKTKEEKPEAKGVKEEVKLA

For orientation: IC50 means the concentration that inhibits the measured activity by half. As to `CCCCCCCCCCCCCCCCNNC(=O)c1cccs1`, the concentration for half-maximal inhibition (IC50) in [1], in [2] and in [3] was more than 100 µM throughout.
Turning to `Nc1ccccc1NC(=O)c1ccc(CNC(=O)OCc2cccnc2)cc1` [ENTINOSTAT], the IC50 in series [4] is 2.96 µM; in series [8] it was 0.939 µM; in [9], 5.57 µM; in [10], 0.41 µM; in [12], 3.63 µM. The Activity in [5] is less than 5%; in series [7], less than 5%; in series [11], 15%; in [13] it was 10%. In addition, in [6], the concentration for half-maximal inhibition (IC50) at 72 h came out at 7.11 µM.
What is called logD is lipophilicity at a set pH, counting ionised and neutral species. Read a low logD as lower lipophilicity. As to `CN(C)c1ccc(C(=O)N(CC(=O)NCc2ccccc2)Cc2ccc(C(=O)Nc3cc(-c4ccncc4)ccc3N)cc2)cc1`, the IC50 in [14] was more than 6.67 µM. In [15], this compound showed a logD of 3.16.
